In patent US20160081901A1, “COMPOSITIONS AND METHODS FOR HAIR GROWTH” (WUHAN OPTICS VALLEY BRIDGEBIOMED INTERNATIONAL CORPORATION, priority 2013, published 2016):

Legend:
[1] = target: T1, bradykinin (BK) B2 receptors (Homo sapiens, UniProt P30411); assay: PG secretion in cell supernatant by enzyme immunoassay (EIA), relative to 1 μM bradykinin; format: cell-based; settings: for PG release (%) compared with BK-1 μM (100%): 1 h, 37° C.
T1 construct: The cell strains used in the study were human primary vein endothelial cells (HPVEC) and human aortic smooth muscle cells (HASMC); endogenous in cells; host or cells: HPVEC and HASMC (human primary cells)
T1 sequence (P30411 1-391): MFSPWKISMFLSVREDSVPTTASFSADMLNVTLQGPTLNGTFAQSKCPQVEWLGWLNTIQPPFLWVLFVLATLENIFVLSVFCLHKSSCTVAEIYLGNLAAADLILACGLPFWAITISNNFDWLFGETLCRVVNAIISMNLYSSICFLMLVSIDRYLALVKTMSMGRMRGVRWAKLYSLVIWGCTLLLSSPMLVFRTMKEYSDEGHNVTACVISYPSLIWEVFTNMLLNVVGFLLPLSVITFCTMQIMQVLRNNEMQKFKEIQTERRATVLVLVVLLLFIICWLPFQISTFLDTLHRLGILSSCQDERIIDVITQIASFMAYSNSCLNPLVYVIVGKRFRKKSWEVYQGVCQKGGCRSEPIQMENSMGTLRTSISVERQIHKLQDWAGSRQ
Description: We studied angiotensin II receptor antagonists activating bradykinin (BK) B2 receptors to promote secretion of Prostaglandin. Losartan, candesartan, telmisartan were selected for the study described below, and bradykinin was used as control. Implantation Two cell lines were transferred into T-75 cell culture flask, and then the instructions of PG kit were strictly followed when cells have reached the appropriate density. Day 1 Cells were seeded in 24 well dishes with minimum medium and allowed to adhere overnight. Day 2 Cells were starved in the serum-free conditioned medium. […] The supernatant was collected after incubation for later use. Day 4 24 well dishes were washed and then dyed for 45-90 min, and then the OD value was measured for analysis. Therefore OD values of BK B2 receptor agonists were obtained and the EC50, EMAX were calculated. The cell strains used in the study were human primary vein endothelial cells (HPVEC) and human aortic smooth muscle cells (HASMC).
In order to detect endogenous prostaglandin, enzyme immunoassay (EIA) was used to determine the amount of prostaglandin and subtypes thereof in the cell supernatant described above.

[2] = target: T2, B2 receptor (Homo sapiens, UniProt P30411); assay: Inhibition of PG secretion by B2 receptor inhibitor HOE-140; format: cell-based; settings: for PG synthesis blocked by 1 μM HOE-140: PG synthesis caused by 10 μM of the compound
T2 construct: The cell strains used in the study were human primary vein endothelial cells (HPVEC) and human aortic smooth muscle cells (HASMC); endogenous in cells; host or cells: HPVEC and HASMC (human primary cells)
T2 sequence (P30411 1-391): T1 sequence (P30411 1-391)
Description: The detailed protocol for the elucidation of inhibited PG secretion by B2 receptor inhibitor HOE-140 was shown as follows. Two different cell lines were transferred into T-75 cell culture flask, and then the instructions of PG kit were strictly followed when cells have reached the appropriate density. Day 1. Cells were seeded in 24 well dishes with minimum medium and allowed to adhere overnight. Day 2. Cells were starved in the serum-free conditioned medium. Day 3. […] Cells were incubated at 37° C. for 1 h. The supernatant was collected after incubation for later use. Day 4. 24 well dishes were washed and then dyed for 45-90 min, and then the quantitative analysis was carried out. Therefore OD values (420 nm) of BK B2 receptor agonists were obtained and the EC50, EMAX were calculated.
Therefore we could conclude the angiotensin II type 1 receptor antagonists influence PG secretion via B2 receptor since HOE-140 acts as B2 receptor antagonist

[3] = longest of all commercially available ARBs; cited from earlier work
[4] = target: T2, B2 receptor; assay: PG subtype secretion (EIA) induced by Candesartan in HPVEC and HASMC; format: cell-based; settings: for PGE2 (%) / PGF-2a (%): 10 μM Candesartan
From the text: These percentage values above were all calibrated with respect to bradykinin.

[5] = 10 μM, calibrated with respect to bradykinin
[6] = HASMC, calibrated with respect to bradykinin
[7] = HPVEC, calibrated with respect to bradykinin

| PG release (%) compared with BK-1 μM (100%) ([1]; 1 μM) | PG release (%) compared with BK-1 μM (100%) ([1]; 3 μM) | PG release (%) compared with BK-1 μM (100%) ([1]; 10 μM) | effect relative to the effect of 1 μM of bradykinin (PG secretion) ([1]; 30 μM) | PG release (%) compared with BK-1 μM (100%) ([1]; 30 μM) | PG release (%) compared with BK-1 μM (100%) ([1]; 30 nm) | PG release (%) compared with BK-1 μM (100%) ([1]; 100 nm) | PG release (%) compared with BK-1 μM (100%) ([1]; 300 nm) | PG relaease (%) compared with BK-1 μM (100%) ([2]; 10 μM + 1 μM HOE-140) | PG relaease (%) compared with BK-1 μM (100%) ([2]; 10 μM, without HOE-140) | PG synthesis blocked by 1 μM HOE-140 [2] | effect relative to the effect of 1 μM of bradykinin (PG secretion) ([1]; 10 μM) | Prostaglandin D secretion ([4]; 10 μM) | share of PG secretion that was Prostaglandin E2 [4, 5] | share of PG secretion that was Prostaglandin F-2a [4, 5] | PGE2 (%) [4, 6] | PGF-2a (%) [4, 6] | PGE2 (%) [4, 7] | PGF-2a (%) [4, 7] | SMILES | half-life [3] |
| --- | --- | --- | --- | --- | --- | --- | --- | --- | --- | --- | --- | --- | --- | --- | --- | --- | --- | --- | --- | --- |
| 9.01 ± 1.35% | 13.56 ± 1.56% | 14.56 ± 2.42% | ~25% | 25.46 ± 3.48% | 4.48 ± 1.54% | 4.69 ± 1.78% | 6.46 ± 3.1% | 3 ± 2.03% | 14.56 ± 2.42% | 80% | – | – | – | – | – | – | – | – | CCCc1nc2c(C)cc(-c3nc4ccccc4n3C)cc2n1Cc1ccc(-c2ccccc2C(=O)O)cc1 [Telmisartan, 2-(4-{[4-methyl-6-(1-methyl-1H-1,3-benzodiazol-2-yl)-2-propyl-1H-1,3-benzodiazol-1-yl]methyl}phenyl)benzoic acid] | about 24 h |
| 8.16 ± 2.43% | 12.06 ± 4.12% | 23.18 ± 3.65% | ~60% | 58.17 ± 6.32% | 0.18 ± 0.74% | 2.96 ± 2.22% | 4.69 ± 1.21% | 5 ± 4.45% | 23.18 ± 3.65% | 80% | – | – | – | – | – | – | – | – | CCCCc1nc(Cl)c(CO)n1Cc1ccc(-c2ccccc2-c2nn[nH]n2)cc1 [Losartan, (2-butyl-4-chloro-1-{[2′-(1H-tetrazol-5-yl)biphenyl-4-yl]methyl}-1H-imidazol-5-yl)methanol] | – |
| 16.51 ± 2.02% | 26.91 ± 4.13% | 46.19 ± 5.65% | ~90% | 86.83 ± 7.21% | 6.21 ± 2.3% | 11.27 ± 2.74% | 12.91 ± 3.08% | 6 ± 3.12% | 46.19 ± 5.65% | 85% | ~50% | no Prostaglandin D detected | 30% | roughly 6% | 37.13 ± 9.85% | 6.21 ± 2.56% | 32.54 ± 6.93% | 5.47 ± 3.32% | CCOc1nc2cccc(C(=O)O)c2n1Cc1ccc(-c2ccccc2-c2nn[nH]n2)cc1 [Candesartan, 2-ethoxy-1-({4-[2-(2H-1,2,3,4-tetrazol-5-yl)phenyl]phenyl}methyl)-1H-1,3-benzodiazole-7-carboxylic acid] | – |
